“Also recorded” adds a separate entry of the source.
Experiments:
Assay type in all cases: in vivo, mouse
RGCs in WT retina = experiment: YO-PRO-1 loading assay (dye permeability of RGCs) in WT retina after intravitreal injection
Description: (§1) Intravitreal Injections. Before injection, mice were anesthetized with isoflurane (2%) and their pupils were dilated with tropicamide (1%) and phenylephrine (2.5%). Proparacaine (0.5%) was used as a topical analgesic. Genteal was applied under a glass coverslip to keep the cornea lubricated. An incision was made through the sclera below the ora serrata with a 30G needle and ˜1 μl of solution was injected into the vitreous with a blunt-ended 33G Hamilton syringe. After injection, the antibiotic tobramycin (0.3%) was applied to the eye. Final drug concentrations after intravitreal injection were: all-trans retinoic acid (ATRA, 100 nM), liarozole (100 μM), diethylaminobenzaldehyde (DEAB, 20 μM), citral (50 μM), BMS-493 (500 nM), and retinaldehyde (1 μM). The above values correspond to the final concentration in the eye after injecting 1 μl of drug accounting for a 5-fold dilution. An injection of PBS including 1% DMSO was used as vehicle control.
(§2) Yo-PRO-1 Loading Assay. After dissection, retinas were cut into thirds and mounted on a windowed nitrocellulose filter paper. Retinas were treated with 200 nM Yo-PRO-1 (Life Technologies) in oxygenated ACSF for 15 minutes, followed by treatment and then treated with nuclear ID (Enzo Life Sciences) at a 1:500 dilution for 3 minutes. ACSF was perfused continuously at 3 ml/min for a period of 5 minutes to wash away excess dye. In experiments employing TNP-ATP (200 μm), the retinas was pretreated with the compound for ten minutes before beginning YO-PRO-1 treatment.
(§3) Image analysis. All image analysis was performed using ImageJ or Fiji software (55,56). Yo-PRO-1 loading assay, ROIs were manually selected using the nuclear-ID channel based upon morphological characteristics. This was performed after computationally flattening the retina by performing a maximum Z projection onto a single plane. Following this, a background subtraction was performed with a rolling radius of 50 pixels. Cells identified as vascular endothelial cells or pericytes were not included in the analysis. This was confirmed using transillumination. A threshold for YO-PRO-1 loading was established by measuring the level of autofluorescence of untreated retinas in each channel and finding a baseline value with +2SD being the threshold for a YO-PRO-1 positive cell. Nuclear-ID was used to count the total number of cells within a field of view. The percentage of cells above the threshold was then calculated for comparison. For analysis of RARE double reporter virus assay, ROIs were manually selected on the RFP channel first and then superimposed to the GFP channel. Single cell values for both RFP and GFP were filtered by using a RFP minimum threshold established in naive unlabeled retinas.
(§4) Injections. Intravitreal injections: Adult mice and rats were intravitreally injected with drugs or viruses. Before injection, animals were anesthetized with isoflurane (2%) and their pupils were dilated with tropicamide (1%) and phenylephrine (2.5%). Proparacaine (0.5%) was used as a topical analgesic. Genteal was applied under a glass coverslip to keep the cornea lubricated. An incision was made through the sclera below the ora serrata with a 30G needle. Solutions were injected into the vitreous with a blunt-ended 33G Hamilton syringe. After injection, the antibiotic tobramycin (0.3%) was applied to the eye. Final drug concentrations (after 5-fold dilution in the vitreous) were: 100 nM all-trans retinoic acid (ATRA), 100 μM liarozole (24), 20 μM diethylaminobenzaldehyde (DEAB) (28,93), 50 μM citral, 500 nM BMS 493 (85), 1 μM retinaldehyde, and vehicle comprising of 1× phosphate buffered saline (PBS) containing 1% dimethyl sulfoxide (DMSO). Intravitreal injections were performed using AAV2 serotype only. WT and rd1 mice were injected with the RAR-reporter virus or the RARDN virus, at age 1-1.5 month-old. WT and s334ter rats were injected with the RAR-reporter virus at age 3-4 month-old. Final volume of injections was 1-1.5 μL for mice and 5 μL for rats. […]

[1] = test system: retinoic acid receptor β (RARβ); experiment: Immunolabeling of RARβ in retinal cross-sections after intravitreal injection; conditions: 5-6 days after intravitreal ATRA 100 nM versus vehicle
Description: The same procedure was carried out for detection of RARβ in mouse retinas following injection of vehicle or ATRA. Slides were incubated with a primary rabbit anti-RARβ antibody (ab53161, Abcam) and detected using an Alexa Fluor-488 conjugated goat anti-rabbit secondary antibody (Life Technologies). […] Retinas were collected 5-6 days following injection with vehicle, ATRA, or ATRA and Liarozole.
Imaging and Analysis. […] RARE double reporter virus in rats, RARb immunolabeling and TUNEL assay were imaged using a Laser Scanning Confocal Microscope (LSM 780 NLO, Zeiss), using Zen software and default configuration for RFP, GFP, AF488 and nuclear-ID detection.

RGCs in rd10 retina = experiment: MEA recording of light-flash responses in partially degenerated rd10 retina
Description: as §1
Multi Electrode Array Recordings. For extracellular recordings, a flat-mounted retina was placed ganglion cell layer down onto a 60-electrode Multi-Electrode Array (MEA 1060-2-BC, Multi-Channel Systems). After mounting the retina, photoswitches were applied for 30 min, followed by a 15 min wash. BENAQ was applied at a concentration of 100 μM and QAQ at 300 μM. A solution containing a mixture of neurotransmitter receptor blockers isolated RGCs from synaptic inputs: (in μM) 10 AP4, 40 DNQX, 30 AP5, 10 SR-95531, 50 TPMPA, 10 strychnine, and 50 tubocurarine. Extracellular spikes were high-pass filtered at 200 Hz and digitized at 20 kHz and were counted when exceeding 4 SD from the mean background voltage signal. Typically, each electrode recorded spikes from one to three individual RGCs. Principal component analysis of the spike waveforms was used for sorting spikes generated by individual cells (Offline Sorter, Plexon). Stimulation light was generated from a mercury arc lamp. Unfiltered broad spectrum light was used for BENAQ-treated retinas. Narrow band optical filters (Chroma) were used to deliver alternating intervals of 380 nm and 500 nm for stimulation of QAQ-treated as described previously (5,12). The Photoswitch Index (5) (PI) was established for individual retinas in light/darkness for treatment with BENAQ or in 380 nm/500 nm light for treatment with QAQ (11,12).
Data Analysis and Statistics. Unless otherwise stated, all statistical significance (p-value) calculations were performed using the two-tailed unpaired Student's t test. Results with p<0.05 were considered significant. P-values are: *<0.05, **<0.01, ***<0.001. Pairwise comparisons for non-parametric data employed the Wilcoxon Rank Sum Test or the Mann-Whitney U-test. In the case where ANOVA was employed, bootstrapping was used to account for unequal group sizes and a Tukey HSD test was employed as a post-hoc test to define which comparisons and interactions produced statistically significant changes. A modified Thompson-Tau method was employed for the detection of outliers. Non-normal data distributions were analyzed using the Kruskal-Wallis ANOVA with a Dunn's post hoc test. Sigmoidal curves were fit using OriginPro™ and the output curves for vehicle and BMS-493 are y=START+(END−START)*x^n/(k^n+x^n).
Injections. Intravitreal injections: Adult mice and rats were intravitreally injected with drugs or viruses. Before injection, animals were anesthetized with isoflurane (2%) and their pupils were dilated with tropicamide (1%) and phenylephrine (2.5%). Proparacaine (0.5%) was used as a topical analgesic. Genteal was applied under a glass coverslip to keep the cornea lubricated. An incision was made through the sclera below the ora serrata with a 30G needle. Solutions were injected into the vitreous with a blunt-ended 33G Hamilton syringe. After injection, the antibiotic tobramycin (0.3%) was applied to the eye. […]

RGCs in rd1 retina = experiment: YO-PRO-1 loading assay (dye permeability of RGCs) in rd1 retina after intravitreal injection
Description: as §1, §2, §3, §4

| Compound | increase of YO-PRO-1 labeling (RGCs in WT retina; WT mice, 3-7 days after intravitreal injection, versus vehicle) [fold] | percentage of YO-PRO-1 positive cells (RGCs in WT retina; WT mice, intravitreal injection 3-7 days before, ATRA 100 nM, liarozole 100 μM, retinaldehyde 1 μM, DEAB 20 μM, mean±SEM) [%] | reversibility of ATRA-induced YO-PRO-1 loading (RGCs in WT retina; WT retina, intravitreal ATRA 100 nM) | Yo-Pro-1 labeling of WT-RGCs, result in words (RGCs in WT retina; WT retina, substance injected intravitreally alone) | RARβ level in RGCs / ganglion cell layer [1] | percentage of YO-PRO-1 positive cells, ATRA-induced labeling with blocker (RGCs in WT retina; WT mice injected with ATRA, TNP-ATP bath-applied ex vivo or BMS-493 co-injected, mean±SEM) [%] | I50, midpoint of the intensity vs. response curve (RGCs in rd10 retina; 6-week-old rd10, 3-7 days after intravitreal injection, vehicle eye 1.73 μW) [μW] | Max, peak response (ratio of firing rate in the light:dark) (RGCs in rd10 retina; 6-week-old rd10, 3-7 days after intravitreal injection, vehicle eye 3.68) | RGC response to a flash of dim light, in words (RGCs in rd10 retina; rd10, 50 ms flash, 0.2 μW, vehicle-treated retinas showed no response) | background (spontaneous) firing in darkness, in words (RGCs in rd10 retina; rd10, BMS-493-injected eye) | response threshold (light intensity) (RGCs in rd10 retina; rd10, BMS-493-injected eye, vehicle-injected 0.85 μW) [μW] | light response compared between drug-injected and vehicle-injected eye of each animal, in words (RGCs in rd10 retina; rd10, n=5, paired) | shift of the intensity-response curve, in words (RGCs in rd10 retina; rd10, range of light intensities, versus vehicle) | Yo-Pro-1 labeling of rd1-RGCs, result in words (RGCs in rd1 retina; rd1, intravitreal injection, compared to vehicle-injected) | percentage of YO-PRO-1 positive cells (fraction of RGC nuclei labeled) (RGCs in rd1 retina; rd1 mice, intravitreal injection, measured 3-7 days after, BMS-493 500 nM, DEAB 20 uM, citral 50 uM, mean±SEM) [%] |
| --- | --- | --- | --- | --- | --- | --- | --- | --- | --- | --- | --- | --- | --- | --- | --- |
| CC1=C(/C=C/C(C)=C/C=C/C(C)=C/C(=O)O)C(C)(C)CCC1 [ATRA, all-trans retinoic acid] | 2 | 15.80±3.10 | reversible; also recorded: disappeared 6 weeks after injection | significantly increased the fraction of cells incorporating Yo-Pro-1 | significant increase in RARβ; also recorded: upregulation of the β-subunit of RAR |  |  |  |  |  |  |  |  |  |  |
| CC1(C)CC=C(C#Cc2ccccc2)c2cc(/C=C/c3ccc(C(=O)O)cc3)ccc21 [BMS-493] |  |  |  |  |  | 5.74±1.54 | 0.35 | 4.77 | shows a response in BMS-493 injected animals but not vehicle injected mice; also recorded: transient increase in RGC firing in response to a brief flash (50 ms) of dim light | reduced spontaneous activity; also recorded: decrease in the background firing rate in darkness | 0.2 | significantly increased light response in every subject; also recorded: observed in all 5 animals tested; also recorded: enhanced the light response in all mice tested | leftward and upward shift of fitted sigmoidal curves; also recorded: increase in sensitivity and peak response to light | reduced Yo-Pro-1 labeling in rd1 to WT levels | 6.13±1.43 |

From patent US20240398738A1, “MANIPULATION OF THE RETINOIC ACID SIGNALING PATHWAY” (THE REGENTS OF THE UNIVERSITY OF CALIFORNIA, priority 2017, published 2024)
